The structures appear in SMILES notation. Activity calls are given as the source filed them.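 The calls were made as follows: active = 40% activation versus positive control reached by fitted dose-response curve at or below highest valid tested dose; inconclusive = poor fit quality, or flat fit with activation between 30% and 70%; inactive = the rest.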

A short description of the assay: Xi-linked GFP reactivating small molecules – imaging, 68-5-11 mouse fibroblasts, cherry-pick, dose response (AID 743394).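 Also: sensitizer 5-aza-dC present in the wells at 0.5 mM final.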 The conditions noted are these: 68-5-11 mouse fibroblast XiGFP reporter, % GFP-positive imaging, 3 d; at 19.5 µM (top of the series); cells co-treated with 5-aza-dC sensitizer; scaled: neutral wells 0, ellipticine wells 100.
On to `O=C(CCC(=O)Nc1cccnc1)Nc1cccnc1`, for which the activation was 0.049% (inactive).
In the case of `C[C@@H]1ON(C)[C@H]2C[C@H]3c4cc(-c5cccc(F)c5)ccc4CCN3C(=O)[C@@H]12`, the activation is 0.187% (inactive).
As for `CN(C)CCN(C(=O)c1ccc(S(=O)(=O)N(C)c2ccccc2)cc1)c1nc2cc3c(cc2s1)OCCO3`, the activation was -0.008% (inactive).
The value for `O=C1CSC(c2cccnc2)N1Cc1ccc(Cl)cc1Cl` (stereo not given) was -0.022% (inactive); that for `O=CNc1ccc2c(c1)Cc1cc([N+](=O)[O-])ccc1-2` was 0.191% (inactive); that for `CCOC(=O)c1ccccc1NC(=O)COC(=O)C1CCN(S(=O)(=O)c2ccccc2C(=O)OC)CC1` was 1.06% (inactive).
For `COc1ccc2c3c([nH]c2c1)[C@H](CO)N(C(=O)Nc1ccc(F)cc1)CC31CN(CC2CC2)C1`, the activation is -0.035% (inactive).
As to `CC(OCCN(C)C)C(=O)C12CC3CC(CC(C3)C1)C2` (stereo not given), the activation was 0.008% (inactive).
As for `CCCCC(CCC(=O)Nc1ccn(-c2ccccc2)n1)C(=O)O` (stereo not given), the activation was 0% (inactive).
Turning to `O=C(c1cnccn1)N1CC(=O)N2[C@H](CO)[C@@H](c3ccc(-c4cccc(F)c4)cc3)[C@@H]2C1`, the activation was -0.014% (inactive).
For `CC(C)(C)N(Cc1ccccc1)C(=O)COC(=O)c1ccc(N2CCCC2=O)cc1`, the activation is 0.165% (inactive).
On to `CC(=O)Nc1ccc(S(=O)(=O)N(C)c2ccc(OCC(=O)NCCc3ccccc3F)cc2)cc1`, for which the activation is -0.07% (inactive).
Consider `CN(Cc1nccn1C)C(=O)CC1C(=O)NCCN1CC(c1ccccc1)c1ccccc1` (stereo not given), for which the activation is 0.001% (inactive).
For `CCOc1ccc(C(=O)c2cc([N+](=O)[O-])ccc2N2CCOCC2)cc1`, the activation is 0.569% (inactive).
Consider `O=[N+]([O-])c1ccc(S(=O)(=O)c2ccccc2)nc1`, for which the activation was -0.024% (inactive).
In the case of `CC1CCCC(NC(=O)CSc2cccc[n+]2[O-])C1C` (stereo not given), the activation is 0.125% (inactive).
On to `CC(C)OC(=O)CC(=O)CSc1nc(-c2ccc(F)cc2)cc(-c2ccccc2)c1C#N`, for which the activation is 0.769% (inactive).
On to `C[C@@H]1CCCCO[C@@H](CN(C)C(=O)Nc2ccc(C(F)(F)F)cc2)[C@@H](C)CN([C@H](C)CO)C(=O)c2cc(NS(=O)(=O)c3ccc(F)cc3)ccc2O1`, for which the activation was -0.031% (inactive).
For the compound `COc1cccc(CNC(=O)C(Cc2ccccc2)n2cccc2)c1` (stereo not given), the activation is 0.002% (inactive).
For `O=C(NNC(=O)c1ccccc1Cl)c1ccccc1Cl`, the activation is -0.034% (inactive).
Regarding `NC(=NC(=O)c1cccc(C(F)(F)F)c1)c1ccc(C(F)(F)F)cn1`, the activation is 0.408% (inactive).
Turning to `COC(=O)c1cnn(-c2ccccc2)c1N`, the activation was 0.12% (inactive).
As to `CC(C)OC(=O)/C(=C\c1cccnc1)NC(=O)c1ccccc1`, the activation is -0.024% (inactive).
As to `O=c1[nH]cnc2c1ncn2[C@H]1CC[C@@H](CO)O1`, the activation was -0.002% (inactive).
On to `Cc1ccc(Cn2cc(/C=N/Nc3ccc([N+](=O)[O-])cn3)c3ccccc32)cc1`, for which the activation was 1.53% (inactive).
Turning to `COc1cccc(CNC(=O)c2cc(S(=O)(=O)N3CCOCC3)cn2C)c1`, the activation was 0.576% (inactive).
As for `COc1ccc2c3c(n(C)c2c1)[C@@H](CO)N(C(=O)NC(C)C)CC31CN(C(C)=O)C1`, the figure is 0.015% (inactive); as for `CC1CN(C(=O)/C=C/c2ccc([N+](=O)[O-])s2)CC(C)O1` (stereo not given), -0.075% (inactive).
With `O=C(CCN1CCCCC1)NCC[C@@H]1CC[C@H](NC(=O)C2CCCCC2)[C@H](CO)O1`, the activation was 0.052% (inactive).
As for `C[C@H](CO)N1C[C@H](C)[C@H](CN(C)S(=O)(=O)c2ccccc2)Oc2ccc(NS(=O)(=O)c3ccc(Cl)cc3)cc2C1=O`, the figure is 0.163% (inactive); as for `NNC(=O)/C(=C\c1ccc(Br)cc1)NC(=O)c1cccs1`, -0.053% (inactive); as for `CC(=O)c1cccc(-c2ccc3c(c2)C(C)(Cc2ccc(S(C)(=O)=O)cc2)C(=O)N3)c1` (stereo not given), -0.032% (inactive).
In the case of `COc1ccc(-c2ccc(C#N)c(SCC(=O)NCc3ccco3)n2)cc1OC`, the activation was 2.59% (inactive).
As for `CC1Oc2ccccc2C=C1/C=N\NC(=O)c1cccnc1` (stereo not given), the figure is 0.047% (inactive); as for `Cc1ccc(S(=O)(=O)N2CCN(C(=O)COC(=O)c3ccccc3OC(F)F)CC2)c(C)c1`, -0.006% (inactive); as for `CC=Cc1ccc2n(c1=O)C[C@@H]1[C@@H](CO)[C@H](C(=O)NCCCN(C)C)[C@H]2N1C(=O)c1ccccc1F` (mixture of isomers), -0.01% (inactive).
As for `CCOC(=O)c1c(C)[nH]c(N=Nc2ccc(OC)cc2)c1C`, the figure is 1.01% (inactive).
`CCOCCCn1c(=NC(C)=O)c(C#N)cc2c(=O)n3cccc(C)c3nc21`: the activation is 0.035% (inactive).
In the case of `O=C(NCCOc1ccccc1)c1cc([N+](=O)[O-])ccc1N1CCOCC1`, the activation is 0.193% (inactive).
With `CC(=O)Nc1ccc(N2Cc3ccccc3C2)cc1`, the activation is -0.053% (inactive).
Regarding `Cc1ccc(Cn2ccsc2=NC(=O)CCl)cc1`, the activation was -0.035% (inactive).
In the case of `C=CCn1c(=S)[nH]c2scc(-c3ccco3)c2c1=O`, the activation was 0.072% (inactive).
Regarding `CCC1Oc2ccc(C)cc2N(CC(=O)N2CCCC2)C1=O` (stereo not given), the activation is 0.113% (inactive).
Turning to `CC1=Nc2ccccc2/C1=C\c1sc(Nc2ccc(C)cc2)nc1O`, the activation is 0.535% (inactive).
On to `S=C(NCc1ccco1)Nc1cccc(Cl)c1Cl`, for which the activation is -0.047% (inactive).
For the compound `O=C(/C=C/Sc1ccc(C(F)(F)F)cn1)c1ccccc1`, the activation was 0.096% (inactive).
As to `CN(C)/C=C1\C=C2C(=O)c3ccccc3N2C1=O`, the activation was 4.14% (inactive).
For `O=C(NC1=NN(c2ccccc2)CC1)Nc1ccccc1F`, the activation was -0.003% (inactive).
As for `CCCN(C(=O)c1ccc(-n2cncn2)c([N+](=O)[O-])c1)C1CCS(=O)(=O)C1` (stereo not given), the activation is -0.007% (inactive).
As for `CCOC(=O)c1ccc(NC(=O)c2ccnn2C)cc1`, the figure is -0.044% (inactive); as for `CC(=O)N[C@@H](CC(=O)O)C(=O)O`, -0.053% (inactive).
In the case of `CC(=O)OCCNc1cc(Sc2nc3ccccc3[nH]2)c2nonc2c1[N+](=O)[O-]`, the activation is -0.034% (inactive).
Turning to `Cc1ccc(S(=O)(=O)NN2C(=O)/C(=C/c3ccccn3)SC2=S)cc1`, the activation is 0.025% (inactive).
For `CC(=NNc1ccc2ccccc2n1)c1ccccn1`, the activation is 1.93% (inactive).
On to `CS(=O)(=O)c1ccc(S(=O)CC(=O)OCc2ccccc2)c([N+](=O)[O-])c1` (stereo not given), for which the activation is -0.127% (inactive).
Turning to `CCOC(=O)c1sc2nc(CSc3ccccc3)[nH]c(=O)c2c1C`, the activation was 0.303% (inactive).
Take `CC(NC(=O)c1ccccc1)C(=O)N/N=C/c1ccccc1` (stereo not given): the activation was 0.535% (inactive).
Turning to `CCN1CCc2c(sc(NC(=O)c3ccc4ccccc4c3)c2C(N)=O)C1`, the activation is -0.008% (inactive).
With `Brc1ccc(-c2cn3ccccc3n2)cc1`, the activation was -0.039% (inactive).
Turning to `Cc1oc2ccc(NS(=O)(=O)c3cccc4cccnc34)cc2c1C(=O)OC(C)C`, the activation was 0.423% (inactive).
For the compound `COc1ccc(C(=O)Nc2c(F)c(F)c(F)c(F)c2F)cc1OC`, the activation was -0.047% (inactive).
The value for `O=[N+]([O-])c1ccc(Sc2nnnn2-c2ccccc2)nc1` was -0.121% (inactive); that for `Cc1nnc(-c2ccc(N3CCCCCC3)c([N+](=O)[O-])c2)o1` was -0.007% (inactive); that for `COc1ccc(C)c(-n2c(=O)n(Cc3ccccc3)c(=O)c3[nH]cnc32)c1` was -0.006% (inactive).
Turning to `CN(C1CCCCC1)S(=O)(=O)c1ccc(C(=O)N2CCN(c3nc4ccccc4s3)CC2)cc1`, the activation is 0.125% (inactive).
Regarding `NS(=O)(=O)c1cccc(NC(=O)COC(=O)Cc2ccc(S(=O)(=O)N3CCOCC3)s2)c1`, the activation was 0.056% (inactive).
As for `CC1CC(C)CN(C(=O)CSCC(=O)Nc2nc(-c3cccs3)cs2)C1` (stereo not given), the figure is -0.047% (inactive).
As for `COc1cccc2cc(C(=O)N(Cc3cccs3)CC3CCCO3)c(=O)oc12` (stereo not given), the figure is -0.044% (inactive); as for `CCOC(=O)N1CCN(C(=O)Cn2ccc3c(OC)cccc3c2=O)CC1`, 0.07% (inactive); as for `O=C1c2ccccc2C(=O)C1c1ccccc1`, -0.024% (inactive).
With `CC(=O)N(C)C[C@@H]1Oc2ncc(-c3cccnc3)cc2C(=O)N([C@@H](C)CO)C[C@@H]1C`, the activation was 0.082% (inactive).
On to `CC(C)(C=O)C1=CC(=O)c2ccccc2C1=O`, for which the activation is -0.07% (inactive).
On to `CC(C)c1ccc(CN2CCN(C(=O)CSc3nnnn3C3CC3)CC2)cc1`, for which the activation is 0.2% (inactive).
As for `Cc1ccc(S(=O)(=O)N(C)c2ccc(C)c([N+](=O)[O-])c2)cc1`, the figure is 0.488% (inactive); as for `C[C@@H]1CCCCO[C@H](CN(C)Cc2ccc3c(c2)OCO3)[C@@H](C)CN([C@H](C)CO)C(=O)c2cc(NS(=O)(=O)c3ccc(F)cc3)ccc2O1`, 0.107% (inactive); as for `Cc1nn2c(NCCCN(C)C)c3c(nc2c1-c1ccccc1)CCCC3`, 0.079% (inactive).
Turning to `Cc1ccc(S(=O)(=O)Nc2cccc3c2O[C@H](CN(C)C(=O)Nc2cccc4ccccc24)[C@H](C)CN([C@H](C)CO)C3=O)cc1`, the activation was 0.028% (inactive).
As to `Cc1ccc(-c2[nH]c(=S)[nH]c(=O)c2C#N)cc1`, the activation was -0.003% (inactive).
Consider `O=C(OCc1cccc(F)c1)c1ccc2c(=O)n3c(nc2c1)CCC3`, for which the activation is 1.02% (inactive).
As for `Cc1ccnc(NS(=O)(=O)c2ccc3c(c2)CCO3)c1`, the figure is 0.025% (inactive).

Values taken from PubChem BioAssay AID743394 (Broad Institute, 2014).
